# Assay results published in paper PMC2995738, “In Vitro and In Vivo Anti-Inflammatory Activity of 17-O-Acetylacuminolide through the Inhibition of Cytokines, NF-κB Translocation and IKKβ Activity” (PLoS ONE, 2010).
# Biological target: T1, IKKβ (Homo sapiens, UniProt O14920)
# T1 construct: gene IKBKB; Human, recombinant IKKβ
# T1 sequence (O14920 1-756): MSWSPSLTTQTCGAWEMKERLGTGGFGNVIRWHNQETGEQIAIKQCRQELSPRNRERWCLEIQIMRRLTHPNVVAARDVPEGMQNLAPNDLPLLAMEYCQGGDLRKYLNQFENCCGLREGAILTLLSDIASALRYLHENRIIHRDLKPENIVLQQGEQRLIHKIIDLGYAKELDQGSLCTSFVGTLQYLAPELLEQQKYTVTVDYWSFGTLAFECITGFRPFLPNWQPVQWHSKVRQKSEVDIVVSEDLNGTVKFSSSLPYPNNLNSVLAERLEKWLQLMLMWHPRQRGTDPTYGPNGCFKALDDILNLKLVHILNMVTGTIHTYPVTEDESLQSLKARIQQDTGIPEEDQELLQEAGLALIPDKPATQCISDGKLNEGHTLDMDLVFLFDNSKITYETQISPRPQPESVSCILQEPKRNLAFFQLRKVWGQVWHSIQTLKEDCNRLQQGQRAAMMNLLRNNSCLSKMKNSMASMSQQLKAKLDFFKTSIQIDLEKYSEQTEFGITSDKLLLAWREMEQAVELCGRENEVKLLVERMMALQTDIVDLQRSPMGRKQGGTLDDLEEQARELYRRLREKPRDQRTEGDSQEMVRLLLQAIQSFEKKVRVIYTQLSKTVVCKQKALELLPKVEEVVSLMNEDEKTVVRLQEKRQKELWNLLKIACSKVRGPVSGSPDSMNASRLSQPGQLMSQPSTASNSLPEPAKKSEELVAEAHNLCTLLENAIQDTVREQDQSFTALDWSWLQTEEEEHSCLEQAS
# Test: K-LISA IKKβ inhibitor screening kit (ELISA of GST-IκBα phosphorylation by recombinant IKKβ)
# Assay type: biochemical
compound,measurement,value
"CC(=O)OC[C@@]12CC[C@H]3C(C)(C)CCC[C@]3(C)[C@H]1C[C@@H](C1=CC(=O)O[C@H]1O)O2 [AA, (12S)-17-acetoxy-8a,12-epoxy-16(R)-hydroxylabd-13(14)Z-en-15,16-olide]",EC50,13.2 µM
